Reference: article PMC3842171 (Bioorganic & medicinal chemistry letters, 2011)

Assays:
HDAC1, HDAC3, and HDAC6 = assay: Single-concentration isoform selectivity screen with Fluor de Lys kit; type: biochemical
[1] = test system: HDAC activity (HeLa cell lysates); assay: Fluor de Lys in vitro fluorescence HDAC activity assay using HeLa cell lysates; type: biochemical

Structure (SMILES)	isoform preference in single-concentration screen (HDAC1, HDAC3, and HDAC6; 32 µM)	fold decreased activity compared to the methyl analogue 1e [1] [fold]	isoform preference in single-concentration screen (HDAC1, HDAC3, and HDAC6; 375 nM)	fold less potent than SAHA ([1]; IC50 ratio versus SAHA) [fold]
CCCCC(CCCCC(=O)Nc1ccccc1)CC(=O)NO (stereo not shown) [Compound 1a, C3-n-butyl SAHA]	preference for HDAC6 over HDAC3	–	–	–
O=C(CC(CCCCC(=O)Nc1ccccc1)c1ccccc1)NO (stereo not shown) [Compound 1b]	preference for HDAC6 over HDAC3	–	–	–
CCC(CCCCC(=O)Nc1ccccc1)CC(=O)NO (stereo not shown) [Compound 1c]	greater potency for HDAC6 over HDAC1 and HDAC3	91	–	–
C=CC(CCCCC(=O)Nc1ccccc1)CC(=O)NO (stereo not shown) [Compound 1d]	preference for HDAC6 over HDAC3	–	–	–
CC(CCCCC(=O)Nc1ccccc1)CC(=O)NO (stereo not shown) [Compound 1e]	–	–	slight preference for HDAC1 over HDAC3 and HDAC6	4
